What was measured:
Experiment in all cases: Greenhouse postemergence herbicidal effect (visual injury)
Type in all cases: in vivo
[1] = tested on: SETFA, Setaria faberi (giant foxtail)
Source text: (§1) Seeds of the desired test plant species were planted in a 90:10% v/v (volume/volume) mixture of PRO-MIX® BX (Premier Tech Horticulture, Quakertown, Pa., USA) and PROFILE® GREENS GRADE™ (Profile Products LLC, Buffalo Grove, Ill., USA) planting mixture, which typically has a pH of 5.2 to 6.2 and an organic matter content of at least 50 percent, in plastic pots with a surface area of 103.2 square centimeters (cm^2). In some aspects, to help ensure good germination and healthy plants, a fungicide treatment and/or other chemical or physical treatment was applied. The plants were grown for 7-36 days (d) in a greenhouse with an approximate 14-hour (h) photoperiod which was maintained at about 23° C. during the day and 22° C. during the night. Nutrients and water were added on a regular basis and supplemental lighting was provided with overhead metal halide 1000-Watt lamps as necessary. The plants were employed for testing when they reached the second or third true leaf stage.
(§2) Emulsifiable concentrates of each of each pyridine carboxylate herbicide (Compound A or Compound B) were prepared at 100 grams acid equivalent per liter (g ae/L). The emulsifiable concentrates also included a safener, cloquintocet-mexyl, at 120 grams active ingredient per liter (g ai/L), unless otherwise noted below. An aliquot of each emulsifiable concentrate was placed in a 25 mL glass vial and diluted with an aqueous mixture of 1.25% (v/v) ACTIROB® B esterified rapeseed oil (Bayer Crop Science, Research Triangle Park, N.C., USA) or MSO® Concentrate with LECI-TECH® methylated soybean oil (Loveland Products, Loveland, Colo., USA) to obtain concentrated stock solutions at the highest application rate for each herbicide, based upon a 12 milliliter (mL) application volume at a rate of 187 liters per hectare (L/ha). The concentrated stock solutions were further diluted with an aqueous mixture of 1.25% v/v ACTIROB® B or MSO® Concentrate with LECI-TECH® to obtain stock solutions at reduced application rates for each herbicide. Spray solutions of the herbicide combinations (Compound A or Compound B plus ACCase inhibitor herbicide) were prepared by adding weighed amounts or aliquots of the ACCase inhibitor herbicide to the stock solutions of Compound A or Compound B to form 12-mL spray solutions in two-way combinations.
(§3) The spray solutions were applied to the plant material with an overhead Mandel track sprayer equipped with 8002E nozzles calibrated to deliver 187 L/ha over an application area of 0.503 square meters (m^2) at a spray height of 18 inches (43 centimeters (cm)) above the average plant canopy. Control plants were sprayed in the same manner with the solvent blank. All pyridine carboxylate herbicide (component a) application rates are given as “g ae/ha” and all ACCase inhibitor herbicide (component b) application rates are given as “g ai/ha.”
(§4) The treated plants and control plants were placed in a greenhouse as described above and watered by sub-irrigation to prevent wash-off of the test compounds. After 20-22 d, the condition of the test plants as compared with that of the control plants was determined visually and scored on a scale of 0 to 100 percent where 0 corresponds to no injury and 100 corresponds to complete kill.

[2] = tested on: ORYSA, Oryza sativa (common rice)
Source text: as §1, §2, §3, §4

ZEAMX, Zea mays (maize) = tested on: ZEAMX, Zea mays (maize)
Source text: as §1, §2, §3, §4

[3] = tested on: LOLMG, Lolium multiflorum subsp. gaudini (annual ryegrass)
Source text: as §1, §2, §3, §4

[4] = tested on: STEME, Stellaria media (chickweed)
Source text: as §1, §2, §3, §4

[5] = tested on: SORVU, Sorghum vulgare (grain sorghum)
Source text: as §1, §2, §3, §4

[6] = tested on: VIOTR, Viola tricolor (wild pansy)
Source text: as §1, §2, §3, §4

[7] = tested on: POLCO, Polygonum convolvulus (wild buckwheat)
Source text: as §1, §2, §3, §4

[8] = tested on: GLXMA, Glycine max (soybean)
Source text: as §1, §2, §3, §4

[9] = tested on: HELAN, Helianthus annuus (common sunflower)
Source text: as §1, §2, §3, §4

[10] = tested on: BRSNW, Brassica napus (winter rape)
Source text: as §1, §2, §3, §4

[11] = tested on: KCHSC, Kochia scoparia (kochia)
Source text: as §1, §2, §3, §4

[12] = tested on: IPOHE, Ipomoea hederacea (ivyleaf morningglory)
Source text: as §1, §2, §3, §4

[13] = tested on: ABUTH, Abutilon theophrasti (velvetleaf)
Source text: as §1, §2, §3, §4

[14] = tested on: CIRAR, Cirsium arvense (Canadian thistle)
Source text: as §1, §2, §3, §4

[15] = tested on: LEFCH, Leptochloa chinensis (Chinese sprangletop)
Source text: as §1, §2, §3, §4

[16] = tested on: RUMOB, Rumex obtusifolius (broad-leaf dock)
Source text: as §1, §2, §3, §4

[17] = tested on: BRSNN, Brassica napus (spring rape); conditions: 70 g ai/ha
Source text: as §1, §2, §3, §4

[18] = tested on: ECHCG, Echinochloa crus-galli (barnyardgrass)
Source text: as §1, §2, §3, §4

[19] = tested on: DIGSA, Digitaria sanguinalis (large crabgrass)
Source text: as §1, §2, §3, §4

[20] = tested on: AVEFA, Avena fatua (wild oat)
Source text: as §1, §2, §3, §4

[21] = tested on: CYPES, Cyperus esculentus (nutsedge)
Source text: as §1, §2, §3, §4

[22] = tested on: ALOMY, Alopecurus myosuroides (blackgrass)
Source text: as §1, §2, §3, §4

[23] = tested on: LOLMU, Lolium multiflorum (Italian ryegrass)
Source text: as §1, §2, §3, §4

C#CCOC(=O)[C@@H](C)Oc1ccc(Oc2ncc(Cl)cc2F)cc1
% visual injury, Obs ([1]; 30 g ai/ha): 98%
% visual injury, Obs ([2]; 30 g ai/ha): 83%
% visual injury, Obs (ZEAMX, Zea mays (maize); 30 g ai/ha): 90%
% visual injury, Obs ([3]; 30 g ai/ha): 15%

CCSC(C)CC1CC(=O)C(C(CC)=NOC/C=C/Cl)=C(O)C1 (stereo not shown) [Clethodim, reference compound]
% visual injury, Obs ([4]; 70 g ai/ha): 0%
% visual injury, Obs ([5]; 70 g ai/ha): 98%
% visual injury, Obs ([6]; 70 g ai/ha): 0%
% visual injury, Obs ([7]; 70 g ai/ha): 0%
% visual injury, Obs ([8]; 70 g ai/ha): 5%
% visual injury, Obs ([9]; 70 g ai/ha): 0%
% visual injury, Obs ([10]; 70 g ai/ha): 0%
% visual injury, Obs ([1]; 70 g ai/ha): 90%
% visual injury, Obs ([11]; 70 g ai/ha): 0%
% visual injury, Obs ([12]; 70 g ai/ha): 0%
% visual injury, Obs ([13]; 70 g ai/ha): 0%
% visual injury, Obs ([14]; 70 g ai/ha): 0%
% visual injury, Obs ([15]; 70 g ai/ha): 95%
% visual injury, Obs ([16]; 70 g ai/ha): 0%

C#CCOC(=O)c1nc(-c2ccc3cc[nH]c3c2F)c(F)c(N)c1Cl [Compound B, propargyl 4-amino-3-chloro-5-fluoro-6-(7-fluoro-1H-indol-6-yl)pyridine-2-carboxylate]
% visual injury, Obs ([5]; 7.5 g ae/ha, with cloquintocet-mexyl): 10%
% visual injury, Obs ([5]; 10 g ae/ha, with cloquintocet-mexyl): 20%

COC(=O)[C@@H](C)Oc1ccc(Oc2ncc(C(F)(F)F)cc2Cl)cc1 [Haloxyfop-R-methyl, reference compound]
% visual injury, Obs ([1]; SETFA, Compound A 0 g/ha, Haloxyfop-R-methyl 70 g/ha): 100%
% visual injury, Obs ([15]; LEFCH, Compound A 0 g/ha, Haloxyfop-R-methyl 70 g/ha): 100%

CCc1cc(C)cc(CC)c1-c1c(OC(=O)C(C)(C)C)n2n(c1=O)CCOCC2 [Pinoxaden]
% visual injury, Obs ([1]; 30 g ai/ha): 10%
% visual injury, Obs ([2]; 30 g ai/ha): 99%
% visual injury, Obs (ZEAMX, Zea mays (maize); 30 g ai/ha): 5%
% visual injury, Obs ([3]; 30 g ai/ha): 94%

CCOC(=O)[C@@H](C)Oc1ccc(Oc2cnc3cc(Cl)ccc3n2)cc1 [Quizalofop-P-ethyl, reference compound]
% visual injury, Obs ([1]; SETFA, Compound A 0 g/ha, Quizalofop-P-ethyl 75 g/ha): 100%
% visual injury, Obs ([15]; LEFCH, Compound A 0 g/ha, Quizalofop-P-ethyl 75 g/ha): 100%

CCCC(=NOCC)C1=C(O)CC(CC(C)SCC)CC1=O (stereo not shown) [Sethoxydim, reference compound]
% visual injury, Obs ([4]; 70 g ai/ha): 0%
% visual injury, Obs [17]: 0%
% visual injury, Obs ([11]; 70 g ai/ha): 0%
% visual injury, Obs ([16]; 70 g ai/ha): 0%

CCON=C(CC)C1=C(O)CC(c2c(C)cc(C)cc2C)CC1=O (stereo not shown) [Tralkoxydim, 2-[1-(ethoxyimino)propyl]-3-hydroxy-5-mesitylcyclohex-2-enone]
% visual injury, Obs ([5]; 100 g ai/ha): 65%
% visual injury, Obs ([1]; 100 g ai/ha): 40%
% visual injury, Obs ([3]; 100 g ai/ha): 70%

Fenoxaprop
% visual injury, Obs ([18]; 46 g ai/ha): 100%
% visual injury, Obs ([19]; 46 g ai/ha): 96%
% visual injury, Obs ([20]; 46 g ai/ha): 68%
% visual injury, Obs ([21]; 46 g ai/ha): 0%
% visual injury, Obs ([22]; 46 g ai/ha): 0%
% visual injury, Obs ([1]; 46 g ai/ha): 100%
% visual injury, Obs ([2]; 46 g ai/ha): 35%
% visual injury, Obs (ZEAMX, Zea mays (maize); 46 g ai/ha): 100%
% visual injury, Obs ([3]; 46 g ai/ha): 0%
% visual injury, Obs ([23]; 46 g ai/ha): 5%

Fluazifop [reference compound]
% visual injury, Obs ([4]; STEME, Compound A 0 g/ha, Fluazifop 105 g/ha): 0%
% visual injury, Obs ([18]; 105 g ai/ha): 95%
% visual injury, Obs ([18]; ECHCG, Compound A 0 g/ha, Fluazifop 105 g/ha): 95%
% visual injury, Obs ([19]; 105 g ai/ha): 95%
% visual injury, Obs ([19]; DIGSA, Compound A 0 g/ha, Fluazifop 105 g/ha): 95%
% visual injury, Obs ([20]; 105 g ai/ha): 93%
% visual injury, Obs ([20]; AVEFA, Compound A 0 g/ha, Fluazifop 105 g/ha): 95%
% visual injury, Obs ([5]; SORVU, Compound A 0 g/ha, Fluazifop 105 g/ha): 100%
% visual injury, Obs ([6]; VIOTR, Compound A 0 g/ha, Fluazifop 105 g/ha): 3%
% visual injury, Obs ([21]; 105 g ai/ha): 5%
% visual injury, Obs ([21]; CYPES, Compound A 0 g/ha, Fluazifop 105 g/ha): 0%
% visual injury, Obs ([7]; POLCO, Compound A 0 g/ha, Fluazifop 105 g/ha): 0%
% visual injury, Obs ([22]; 105 g ai/ha): 93%
% visual injury, Obs ([22]; ALOMY, Compound A 0 g/ha, Fluazifop 105 g/ha): 85%
% visual injury, Obs ([8]; GLXMA, Compound A 0 g/ha, Fluazifop 105 g/ha): 28%
% visual injury, Obs ([9]; HELAN, Compound A 0 g/ha, Fluazifop 105 g/ha): 0%
% visual injury, Obs ([10]; BRSNW, Compound A 0 g/ha, Fluazifop 105 g/ha): 0%
% visual injury, Obs ([1]; 105 g ai/ha): 90%
% visual injury, Obs ([1]; SETFA, Compound A 0 g/ha, Fluazifop 105 g/ha): 85%
% visual injury, Obs ([11]; KCHSC, Compound A 0 g/ha, Fluazifop 105 g/ha): 0%
% visual injury, Obs ([12]; IPOHE, Compound A 0 g/ha, Fluazifop 105 g/ha): 0%
% visual injury, Obs ([13]; ABUTH, Compound A 0 g/ha, Fluazifop 105 g/ha): 0%
% visual injury, Obs ([14]; CIRAR, Compound A 0 g/ha, Fluazifop 105 g/ha): 5%
% visual injury, Obs ([23]; 105 g ai/ha): 80%
% visual injury, Obs ([23]; LOLMU, Compound A 0 g/ha, Fluazifop 105 g/ha): 88%
% visual injury, Obs ([15]; 105 g ai/ha): 100%
% visual injury, Obs ([15]; LEFCH, Compound A 0 g/ha, Fluazifop 105 g/ha): 98%
% visual injury, Obs ([16]; RUMOB, Compound A 0 g/ha, Fluazifop 105 g/ha): 0%
